Results taken from the supplement of paper PMC13380429.

Legend:
Settings in all cases: 72 h
Caco-2 [1] = experiment: cell viability relative to DMSO; higher = less toxic
HepG2 [2] = experiment: as above
U2OS [3] = experiment: as above
Vero E6 [4] = experiment: as above
Caco-2 [5] = experiment: relative viability EC50 (midpoint between 100% and the lowest measured viability); higher = less toxic
U2OS [6] = experiment: as above
Vero E6 [7] = experiment: as above
Caco-2 [8] = experiment: drug sensitivity score (DSS) for viability; higher = more toxic; extreme values may be limits of the assay
HepG2 [9] = experiment: as above
U2OS [10] = experiment: as above
Vero E6 [11] = experiment: as above
HepG2 [12] = experiment: relative viability EC50 (midpoint between 100% and the lowest measured viability); higher = less toxic
Calu-3 [13] = experiment: cell viability relative to DMSO; higher = less toxic
Calu-3 [14] = experiment: relative viability EC50 (midpoint between 100% and the lowest measured viability); higher = less toxic
Calu-3 [15] = experiment: drug sensitivity score (DSS) for viability; higher = more toxic; extreme values may be limits of the assay

SMILES	cell viability (Caco-2 [1]; 1 nM) [%]	cell viability (Caco-2 [1]; 10 nM) [%]	cell viability (Caco-2 [1]; 100 nM) [%]	cell viability (Caco-2 [1]; 1000 nM) [%]	cell viability (Caco-2 [1]; 10000 nM) [%]	cell viability (HepG2 [2]; 1 nM) [%]	cell viability (HepG2 [2]; 10 nM) [%]	cell viability (HepG2 [2]; 100 nM) [%]	cell viability (HepG2 [2]; 1000 nM) [%]	cell viability (HepG2 [2]; 10000 nM) [%]	cell viability (U2OS [3]; 1 nM) [%]	cell viability (U2OS [3]; 10 nM) [%]	cell viability (U2OS [3]; 100 nM) [%]	cell viability (U2OS [3]; 1000 nM) [%]	cell viability (U2OS [3]; 10000 nM) [%]	cell viability (Vero E6 [4]; 1 nM) [%]	cell viability (Vero E6 [4]; 10 nM) [%]	cell viability (Vero E6 [4]; 100 nM) [%]	cell viability (Vero E6 [4]; 1000 nM) [%]	cell viability (Vero E6 [4]; 10000 nM) [%]	relative viability EC50 (Caco-2 [5]) [µM]	relative viability EC50 (U2OS [6]) [µM]	relative viability EC50 (Vero E6 [7]) [µM]	drug sensitivity score (Caco-2 [8])	drug sensitivity score (HepG2 [9])	drug sensitivity score (U2OS [10])	drug sensitivity score (Vero E6 [11])	relative viability EC50 (HepG2 [12]) [µM]	cell viability (Calu-3 [13]; 1 nM) [%]	cell viability (Calu-3 [13]; 10 nM) [%]	cell viability (Calu-3 [13]; 100 nM) [%]	cell viability (Calu-3 [13]; 1000 nM) [%]	cell viability (Calu-3 [13]; 10000 nM) [%]	relative viability EC50 (Calu-3 [14]) [µM]	drug sensitivity score (Calu-3 [15])
C[C@@H](NC(=O)c1ncnc(N)c1Cl)c1ncc(C(=O)Nc2cc(C(F)(F)F)c(Cl)cn2)s1 [MLN2480]	101	96.4	103	103	91.5	102	102	101	91.9	57	102	101	103	102	95.4	95.4	104	111	108	108	> 10	> 10	> 10	0	3.5	0	0	–	–	–	–	–	–	–	–
Cc1onc(-c2ccccc2Cl)c1C(=O)N[C@@H]1C(=O)N2[C@@H]1SC(C)(C)[C@@H]2C(=O)O [cloxacillin]	102	99.7	98.5	109	95.8	107	116	104	90.8	109	–	–	–	–	–	94.5	97.6	99.7	98.2	106	> 10	–	> 10	0	0	–	0	> 10	–	–	–	–	–	–	–
C[C@@H]1CCC[C@H](C)N1NC(=O)c1ccc(Cl)c(S(N)(=O)=O)c1 [clopamide]	94.5	104	110	105	104	–	–	–	–	–	–	–	–	–	–	99.4	102	104	99.4	105	> 10	–	> 10	0	–	–	0	–	102	106	104	104	95.1	> 10	0
O=C(O)C(O)Cc1ccc(O)c(O)c1 (centres undefined) [sodium-danshensu]	–	–	–	–	–	99.5	121	99.8	92	104	95	96.2	96.3	94.8	87.7	101	102	103	95.7	97.6	–	> 10	> 10	–	0	0	0	> 10	–	–	–	–	–	–	–
Cc1ccsc1/C=C/C1=NCCCN1C [morantel]	94.6	86	72.7	94.6	84.2	–	–	–	–	–	98.2	104	97.2	100	96.9	108	104	110	101	96.8	> 10	> 10	> 10	0	–	0	0	–	94.5	111	91.1	101	96.9	> 10	0
Cc1cccc(Nc2ccncc2S(=O)(=O)NC(=O)NC(C)C)c1 [torasemide]	102	112	96.7	103	96.2	–	–	–	–	–	–	–	–	–	–	105	101	102	99.2	103	> 10	–	> 10	0	–	–	0	–	100	100	96.5	110	85.6	> 10	0.1
CNC(=O)c1c(F)cccc1Nc1nc(Nc2cc3c(cc2OC)CCN3C(=O)CN(C)C)nc2[nH]ccc12	103	93.4	92.3	85.7	52.8	100	101	77.3	53	56.5	97.7	98.9	100	87.9	78.5	101	97	94.1	93.4	101	–	> 10	> 10	4.1	11.5	2	0	–	99.4	104	103	95.1	91.3	> 10	0
C[C@@H](c1nc(-c2ccc(C#N)cc2)cs1)[C@](O)(Cn1cncn1)c1ccc(F)cc1F [ravuconazole]	106	103	99.3	84	59.3	97.1	99.3	84.8	99.9	49.1	101	105	95.9	100	85.9	96.3	95.9	101	102	98.6	–	> 10	> 10	4.2	2.7	0.2	0	3.14	–	–	–	–	–	–	–
Cc1cc(CN2CCN(c3c(Br)cnc4nc(-c5ccc(N6CCN(C)CC6)cc5)[nH]c34)CC2)no1	101	99.3	99.7	96.8	84.7	101	98	106	65.6	59.9	98.7	106	98.1	102	74.8	96	96.6	94.1	83.6	84.2	> 10	–	> 10	0.6	6	0.8	1.5	–	97.8	103	94.2	114	105	> 10	0
CC(C)(Sc1cc(C(C)(C)C)c(O)c(C(C)(C)C)c1)Sc1cc(C(C)(C)C)c(O)c(C(C)(C)C)c1 [probucol]	104	96.3	106	102	102	–	–	–	–	–	104	96.1	101	96.2	98.7	100	101	106	98.1	97.8	> 10	> 10	> 10	0	–	0	0	–	98.6	106	99.9	103	96	> 10	0
CC1(C)C[C@@H]1C(=O)N/C(=C\CCCCSC[C@H](N)C(=O)O)C(=O)O [Cilastatin Sodium]	101	107	105	99	102	108	102	95.4	87.7	96.5	97.4	100	95.9	102	97.6	104	102	99.2	99.8	94.3	> 10	> 10	> 10	0	0.9	0	0	> 10	–	–	–	–	–	–	–
Cc1cc(C)c(N(Cc2ccccc2)S(=O)(=O)c2ccc(OCCNC(=O)c3cc4ccccc4o3)cc2)c(C(=O)NO)c1	94.1	101	105	88.8	42	93.4	98.9	91	94.5	37.8	104	96.3	100	98.5	63.9	105	107	105	104	47	1.77	–	3.55	5	4.3	1.9	2.5	2.43	95.2	103	96.9	99.4	73.4	–	1.1
Cc1ccc(S(=O)(=O)Nc2ccc3c(c2)c(C(=O)C(F)(F)F)cn3CC(=O)N[C@@H](CC(C)C)C(=O)O)cc1 [NTRC-824]	94.7	103	95	102	89.7	–	–	–	–	–	102	109	102	102	95.3	96.9	98.1	100	94.7	95.4	> 10	> 10	> 10	0	–	0	0	–	88.4	101	94.2	102	93.5	> 10	0
Oc1ccc2ccccc2c1Cc1c(O)ccc2ccccc12 [ST-1859]	90.3	92.6	97.5	101	75.8	103	102	93.9	90.7	86.9	95.1	101	98.2	104	96.5	98.3	104	102	93	95.2	> 10	> 10	> 10	0.8	0.5	0	0	> 10	87.4	94.8	91.9	93.9	64.6	–	2.7
Cc1ncc([N+](=O)[O-])n1CC(O)CN1CCOCC1 (centres undefined) [morinidazole]	103	92	100	109	102	96.3	108	94.2	96.6	102	101	95.1	106	104	101	99.7	97.1	96.3	96.7	101	> 10	> 10	> 10	0	0	0	0	> 10	–	–	–	–	–	–	–
O=C(Nc1ccncc1)c1cc([N+](=O)[O-])ccc1Cl	102	86.1	97.9	96.3	85.5	103	91.3	105	86	99.4	99.5	104	99.7	106	93.2	102	97.3	89.4	88	93.1	> 10	> 10	> 10	0	0	0	0.9	> 10	–	–	–	–	–	–	–
